In ChEMBL document CHEMBL1201862, “PubChem BioAssay data set” (2004):
The source made the active and inactive calls. Cut-off read from the data, not from the text of the source, for most assays here: actives have a measured EC50 and inactives only a lower limit.

Key:
[1] = Luminescence Cell-Based Dose Retest to Confirm Inhibitors of Cancer Stem Cells. [Related pubchem assays (depositor defined):AID2717, AID2721]; assay type: functional; conditions: Homo sapiens
[2] = viability of uninfected HEp-2 cells – cell-based, HTS, cytotoxicity control for RSV inhibitor project, dose response (AID 2410); assay type: functional; conditions: human respiratory syncytial virus
H4 = assay: Luminescence Cell-Based Dose Response HTS to Identify Activators of 5'UTR Stem-Loop Driven Prion Protein mRNA Translation in H4 Neuroglioblastoma Cells. [Related pubchem assays: 1829 (Project Summary), 1814 (Primary HTS)]; assay type: functional; conditions: Homo sapiens
[3] = Luminescence Cell-Based Dose Confirmation HTS to Identify Activators of 5'UTR Stem-Loop Driven Alpha-Synuclein mRNA Translation in H4 Neuroglioblastoma Cells. [Related pubchem assays: 1829 (Project Summary), 1814 (Primary HTS)]; assay type: functional
[4] = Luminescence Cell-Based Dose Response HTS to Identify Activators of Luciferase Translation or Activity in H4 […] Cells. [Related pubchem assays: 1829 (Project Summary), 1814 (Primary HTS)]; assay type: functional
[5] = molecular target: T1, Heat shock factor protein 1 (Mus musculus, UniProt P38532); assay: enhancement of HSF1-driven luciferase signal – cell-based, NIH3T3, luminescence, dose retest, confirmation (AID 435004); assay type: functional;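 note: stress induced by proteasome inhibitor MG132 added 30 min after compound; luciferase reporter driven by HSF1 response element in NIH3T3 cells; actives raise luminescence as potentiators of the MG132 stress response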
T1 sequence (P38532 whole entry): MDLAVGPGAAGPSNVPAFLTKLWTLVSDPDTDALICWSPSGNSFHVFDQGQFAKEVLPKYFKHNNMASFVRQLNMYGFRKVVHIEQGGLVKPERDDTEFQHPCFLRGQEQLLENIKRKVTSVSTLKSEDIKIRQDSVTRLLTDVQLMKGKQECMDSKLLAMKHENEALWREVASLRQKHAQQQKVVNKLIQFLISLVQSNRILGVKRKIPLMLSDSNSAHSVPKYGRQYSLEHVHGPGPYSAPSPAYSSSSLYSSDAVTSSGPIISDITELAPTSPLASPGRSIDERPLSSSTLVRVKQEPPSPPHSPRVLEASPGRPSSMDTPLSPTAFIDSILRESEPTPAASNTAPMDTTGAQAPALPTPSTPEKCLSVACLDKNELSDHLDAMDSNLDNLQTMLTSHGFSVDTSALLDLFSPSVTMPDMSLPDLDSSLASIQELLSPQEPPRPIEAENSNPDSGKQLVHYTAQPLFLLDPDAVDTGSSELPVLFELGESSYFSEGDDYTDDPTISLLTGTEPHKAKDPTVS

[6] = molecular target: T2, Replicative DNA helicase DnaB (Mycobacterium tuberculosis, UniProt P9WMR3); assay: DnaB intein splicing inhibitors, dose response, biochemical, cell-free fluorescence (AID 449749); assay type: functional
T2 sequence (P9WMR3 whole entry): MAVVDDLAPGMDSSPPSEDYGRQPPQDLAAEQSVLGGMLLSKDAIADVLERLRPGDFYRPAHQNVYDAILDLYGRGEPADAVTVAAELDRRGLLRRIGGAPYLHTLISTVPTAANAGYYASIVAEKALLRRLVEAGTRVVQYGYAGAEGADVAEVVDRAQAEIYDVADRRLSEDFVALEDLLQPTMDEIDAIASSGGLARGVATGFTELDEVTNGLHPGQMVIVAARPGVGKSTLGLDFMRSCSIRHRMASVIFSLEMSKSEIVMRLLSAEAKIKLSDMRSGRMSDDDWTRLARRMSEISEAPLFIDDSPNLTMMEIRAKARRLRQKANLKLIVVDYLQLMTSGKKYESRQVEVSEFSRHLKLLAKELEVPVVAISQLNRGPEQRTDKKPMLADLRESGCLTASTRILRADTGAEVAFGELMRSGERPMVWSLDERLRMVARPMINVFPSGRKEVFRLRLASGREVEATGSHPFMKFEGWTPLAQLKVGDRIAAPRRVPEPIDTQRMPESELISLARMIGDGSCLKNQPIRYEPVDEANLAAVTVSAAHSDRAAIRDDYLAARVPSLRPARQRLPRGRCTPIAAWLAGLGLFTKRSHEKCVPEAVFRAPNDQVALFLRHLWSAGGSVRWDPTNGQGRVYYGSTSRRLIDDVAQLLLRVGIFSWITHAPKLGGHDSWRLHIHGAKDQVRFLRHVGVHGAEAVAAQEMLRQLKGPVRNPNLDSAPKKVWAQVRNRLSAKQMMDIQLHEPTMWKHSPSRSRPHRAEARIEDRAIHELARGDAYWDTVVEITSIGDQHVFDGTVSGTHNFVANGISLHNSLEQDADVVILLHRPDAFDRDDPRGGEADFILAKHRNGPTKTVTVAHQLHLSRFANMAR

Protein RecA = molecular target: T3, Protein RecA (Mycobacterium tuberculosis, UniProt P9WHJ3); assay: Fluorescence Cell-Free Homogeneous Dose Retest to Identify Inhibitors of RecA-Intein Splicing Activity. [Related pubchem assays (depositor defined):AID2097, AID2223, AID489010, AID492950]; assay type: functional
T3 sequence (P9WHJ3 whole entry): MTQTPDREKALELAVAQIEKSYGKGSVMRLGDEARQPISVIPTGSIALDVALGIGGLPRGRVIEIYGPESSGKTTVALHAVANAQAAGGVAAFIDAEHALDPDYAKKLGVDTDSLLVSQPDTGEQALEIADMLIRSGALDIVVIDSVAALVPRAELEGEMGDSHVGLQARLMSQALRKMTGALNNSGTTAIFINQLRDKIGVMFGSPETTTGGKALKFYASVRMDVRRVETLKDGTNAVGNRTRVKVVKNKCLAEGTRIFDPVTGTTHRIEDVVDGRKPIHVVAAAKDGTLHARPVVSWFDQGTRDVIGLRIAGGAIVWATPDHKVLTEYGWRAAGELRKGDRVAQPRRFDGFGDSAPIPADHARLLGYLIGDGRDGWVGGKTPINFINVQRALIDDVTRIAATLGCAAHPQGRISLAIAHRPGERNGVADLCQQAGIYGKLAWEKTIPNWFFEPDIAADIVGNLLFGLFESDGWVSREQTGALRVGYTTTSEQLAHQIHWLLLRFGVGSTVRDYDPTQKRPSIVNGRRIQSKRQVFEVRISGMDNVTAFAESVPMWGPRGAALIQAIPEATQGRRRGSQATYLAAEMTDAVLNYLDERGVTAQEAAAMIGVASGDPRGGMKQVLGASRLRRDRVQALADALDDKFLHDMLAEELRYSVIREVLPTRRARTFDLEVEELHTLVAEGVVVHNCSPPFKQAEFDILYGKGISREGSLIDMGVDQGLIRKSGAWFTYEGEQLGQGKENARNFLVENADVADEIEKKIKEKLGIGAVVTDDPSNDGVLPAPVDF

Cytochrome P450 1A2 = molecular target: T4, Cytochrome P450 1A2 (Homo sapiens, UniProt P05177);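 note: PubChem cytochrome P450 panel assay, CYP1A2 panel member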
T4 sequence (P05177 whole entry): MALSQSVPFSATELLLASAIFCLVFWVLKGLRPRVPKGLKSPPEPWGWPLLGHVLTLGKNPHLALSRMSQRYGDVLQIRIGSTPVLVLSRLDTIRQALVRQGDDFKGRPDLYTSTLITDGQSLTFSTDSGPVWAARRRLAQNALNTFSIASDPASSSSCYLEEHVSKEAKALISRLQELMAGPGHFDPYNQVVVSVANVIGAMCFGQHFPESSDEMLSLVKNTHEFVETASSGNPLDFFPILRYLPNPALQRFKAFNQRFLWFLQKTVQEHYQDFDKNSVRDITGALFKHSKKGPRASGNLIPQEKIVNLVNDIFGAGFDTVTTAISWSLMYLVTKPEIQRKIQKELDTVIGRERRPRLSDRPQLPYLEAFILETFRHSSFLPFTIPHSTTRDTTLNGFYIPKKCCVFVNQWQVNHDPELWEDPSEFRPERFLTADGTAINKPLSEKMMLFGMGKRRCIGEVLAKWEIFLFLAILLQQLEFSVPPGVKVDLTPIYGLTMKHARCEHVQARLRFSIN

CC(=O)N1c2ccc(Cl)cc2C2C=CCC2C1c1cccc2ccccc12 (stereo unspecified)
AC50 [1]: 2.27 µM (active)

Cc1ccccc1C1c2[nH]c3ccccc3c2CCN1C(=O)c1ccc(=O)n(C)n1 (stereo unspecified)
CC50 [2]: 20.4 µM (active)

COc1cc(C(=O)OC2CC3CCC2(C)C3(C)C)ccc1OC(C)=O (stereo unspecified)
AC50 [1]: 3.75 µM (active)

NC(=O)c1sc2nc(N3CCOCC3)c3c(c2c1N)CCCC3
CC50 [2]: > 50 µM (active)

CCOC(=O)Nc1ccc2c(C)cc(=O)oc2c1
EC50 (H4): 12.9 µM (active)
EC50 [3]: 13 µM (active)
EC50 [4]: 30.9 µM (active)

Cc1ccc(F)cc1NC(=O)N1CCCN(c2ccc(C(F)(F)F)cn2)CC1
EC50 [5]: > 260 µM (inactive)

c1ccc(-c2cc3n(c2)CCc2ccccc2-3)cc1
EC50 (H4): 22.7 µM (active)
EC50 [3]: 10.7 µM (active)
EC50 [4]: 15.9 µM (active)

CCN(CC)C(=O)CSc1ncnc2sc(C)c(C)c12
EC50 [5]: > 260 µM (inactive)

COc1ccc(S(=O)(=O)N2CCN(c3nc(-c4cccnc4)nc4ccccc34)CC2)cc1
CC50 [2]: 30.4 µM (active)

O=C(CSc1ncnc2c1nnn2-c1ccc(F)cc1)NCC1CCCO1 (stereo unspecified)
AC50 [6]: 3.14 µM (active)
EC50 (Protein RecA): 3.67 µM (active)
EC50 [5]: 36.2 µM (active)

Cc1noc(C)c1COC(=O)c1cc2ccccc2cc1O
CC50 [2]: 43.1 µM (active)

CC1CCc2[nH]c3ccc(C(=O)N(C)CC(=O)Nc4ccccc4Br)cc3c2C1 (stereo unspecified)
CC50 [2]: 22 µM (active)

CCN1CCN(Cc2ccc(OCc3ccccc3)cc2)CC1
AC50 [1]: 1.89 µM (active)

O=C(NC(=S)Nc1ccccc1C(F)(F)F)c1ccccc1F
EC50 [5]: 143 µM (active)

O=C(O)CCc1ccc(-c2ccc(Br)cc2)n1Cc1ccco1
EC50 [5]: > 260 µM (inactive)

CCOc1ccc(OCCC(=O)OCC(=O)N2CCN(S(=O)(=O)c3ccc(Cl)cc3)CC2)cc1
EC50 [5]: 18.5 µM (active)

O=C(NCCC1=CCCCC1)c1cnccn1
EC50 (H4): 11 µM (active)
EC50 [3]: 8.37 µM (active)
EC50 [4]: 4.95 µM (active)

CC(C)C(=O)NCCc1nc2ccccc2n1CCCOc1ccc(Cl)cc1
AC50 (Cytochrome P450 1A2): 28.2 µM (inconclusive)
